Laboratory results: patent publication US20060223888A1, “Valproic acid analogues and pharmaceutical composition thereof” (priority 2002, published 2006)

Tests used:
PTZ-induced seizures = assay: ED50 against PTZ-induced seizures, i.p.; type: in vivo; settings: Rattus norvegicus, ip, male Sprague-Dawley rats (n = 8)
Source text: These compounds were investigated for anticonvulsant activity in mice^13 and rats (see results in Table 4) and found to be equivalent in potency to VPA.

[1] = Pharmacokinetics and tissue distribution (plasma, liver, brain) after i.p. administration; type: in vivo, male Sprague-Dawley rats; settings: rat; for Affinity for / accumulation in the liver (in words): FIG. 1, Table 5
[2] = tested on: Maximal Electroshock (MES) seizures; assay: Maximal electroshock (MES) test, rats, oral, time to peak effect; type: in vivo; settings: 50 mg/kg
Experimental: Anticonvulsant testing was conducted at the antiepileptic screening facility of the National Institute for Neurological Disorders and Stroke in Rockville, Md. Initial tests were done in mice (i.p.) followed by oral and i.p. administration to rats. Neurotoxicity was evaluated with the rotarod test. Maximal electroshock (MES) and subcutaneous methylene tetrazole (SCMET) or pentylene tetrazole (PTZ) were the most common tests performed. Typical procedures are described below. MES Assay. Male CD1/CR mice weighing from 25-35 g are administrated test compounds 15 minutes prior to MES. Mice are challenged by pulsed electrical stimulation (50 mA, 0.4 s duration, pulse width 0.5 ms, 60 pulses/sec) via corneal electrodes to induce seizure. Mice are observed post-stimulation for the onset of tonic seizures, and considered to have a tonic seizure only if there is a prolonged extension (>90° from plane of body) of the hind legs. […] Ten mice are used in each group. A number of VPA analogues and their sodium salts were tested for their efficacy as anticonvulsants and for their toxicity using the MES Assay and rotarod test.

[3] = tested on: Subcutaneous Methylene Tetrazole (SCMET) seizures; assay: Subcutaneous methylene tetrazole (SCMET) test, rats, oral, time to peak effect; type: in vivo; settings: 75 mg/kg
[4] = tested on: rotarod test (neurotoxicity); assay: Rotarod neurotoxicity test (TOX), rats, oral; type: in vivo
Experimental: Anticonvulsant testing was conducted at the antiepileptic screening facility of the National Institute for Neurological Disorders and Stroke in Rockville, Md. Initial tests were done in mice (i.p.) followed by oral and i.p. administration to rats. Neurotoxicity was evaluated with the rotarod test. Maximal electroshock (MES) and subcutaneous methylene tetrazole (SCMET) or pentylene tetrazole (PTZ) were the most common tests performed. Typical procedures are described below.
Rotorod Test. Acute drug induced neurotoxicity is detected in mice using the standard rotorod test. An untreated mouse, when placed on a 6 rpm rotation rod, can maintain its equilibrium for a prolonged period of time.
A number of VPA analogues and their sodium salts were tested for their efficacy as anticonvulsants and for their toxicity using the MES Assay and rotarod test. In particular, the following compounds (as shown in the structures below) were tested: 332059U (sodium salt of VPA), 325071 (known compound, tested for comparison), 325073A (metabolite of VPA), 332060U (4,4-difluoro-2-propylpentanoate, fluorinated analogue of VPA), 341031, and 341032U (conjugated (E,Z)-2,3′-diene VPA analogues).

[5] = children born to mothers treated with VPA; cited from earlier work
rat liver = settings: cited from earlier work

## CCC=C(CCC)C(=O)O [(E)-2-ene VPA, 2-propylpent-2-enoic acid]
PTZ-induced seizures
  ED50: 185 mg/kg
[1]
  Affinity for / accumulation in the liver (in words): markedly reduced affinities for liver

## C/C=C\C(=C/CC)C(=O)[O-].[Na+] [325073A, Sodium (2E)-2-[(1Z)-prop-1-en-1-yl]pent-2-enoate]
[2]; 0.25 h
  MES N/F = number of animals protected relative to number tested: 2/4
[2]; 0.5 h
  MES N/F = number of animals protected relative to number tested: 0/4
[2]; 1.0 h
  MES N/F = number of animals protected relative to number tested: 0/4
[2]; 2.0 h
  MES N/F = number of animals protected relative to number tested: 0/4
PTZ-induced seizures
  ED50: 168 mg/kg
[1]; FIG. 1
  Distribution to the brain (in words): rapid distribution to the brain
[1]; listed as (E,Z)-2,3′-diene VPA
  Affinity for / accumulation in the liver (in words): significantly reduced affinity for the liver
[1]; listed as (E,Z)-2,3′-diene-VPA
  Affinity for / accumulation in the liver (in words): markedly reduced affinities for liver
[3]; 0.25 h
  SCMET N/F = number of animals protected relative to number tested: 1/4
[3]; 0.5 h
  SCMET N/F = number of animals protected relative to number tested: 0/4
[3]; 1.0 h
  SCMET N/F = number of animals protected relative to number tested: 0/4
[3]; 2.0 h
  SCMET N/F = number of animals protected relative to number tested: 0/4
[3]; 4.0 h
  SCMET N/F = number of animals protected relative to number tested: 0/4

## CCCC(CCC)C(=O)[O-].[Na+] [332059A, Sodium 2-propylpentanoate, reference compound]
[4]; 300 mg/kg, 0.25 h
  TOX: N/F = number of animals that failed the rotarod test to numbers tested: 0/4
[4]; 300 mg/kg, 0.5 h
  TOX: N/F = number of animals that failed the rotarod test to numbers tested: 0/4
[4]; 300 mg/kg, 1.0 h
  TOX: N/F = number of animals that failed the rotarod test to numbers tested: 0/4
[4]; 300 mg/kg, 2.0 h
  TOX: N/F = number of animals that failed the rotarod test to numbers tested: 0/4
[4]; 300 mg/kg, 4.0 h
  TOX: N/F = number of animals that failed the rotarod test to numbers tested: 0/4
[4]; 400 mg/kg, 0.5 h
  TOX: N/F = number of animals that failed the rotarod test to numbers tested: 0/4
[4]; 400 mg/kg, 1.0 h
  TOX: N/F = number of animals that failed the rotarod test to numbers tested: 0/4
[4]; 400 mg/kg, 2.0 h
  TOX: N/F = number of animals that failed the rotarod test to numbers tested: 0/4
[5]
  Neural tube defects leading to spina bifida, share of children born to treated mothers: 1-2%
PTZ-induced seizures
  ED50: 158 mg/kg

## C=C/C=C(\CCC)C(=O)O [(E)-2,4-diene-VPA, 2-propylpent-(E)-2,4-dienoic acid]
Rat liver
  Lipid accumulation in rat liver: induce massive lipid accumulation in rat liver

## C=CCC(CCC)C(=O)O (stereo not drawn) [4-ene VPA, 2-propylpent-4-enoic acid]
Rat liver
  Lipid accumulation in rat liver: induce massive lipid accumulation in rat liver
